Structures can show the parent of a compound that is named as a salt.
Assay: Inhibition of rat brain Na(+)/K(+) ATPase

## CC(C)=CCC/C(C)=C/CC/C(C)=C/CC/C(C)=C/CC/C(C)=C/CC/C(C)=C/CC/C(C)=C/Cc1cc(OS(=O)(=O)O)ccc1OS(=O)(=O)O [DISODIUM SARCOHYDROQUINONE SULFATE B]
  IC50: 1400 nM

## CC(C)=CCC/C(C)=C/CC/C(C)=C/CC/C(C)=C/CC/C(C)=C/CCC1(C)C=Cc2cc(OS(=O)(=O)O)ccc2O1 (configuration not stated) [SODIUM SARCOCHROMENOL SULFATE A]
  IC50: 1600 nM

Source: ChEMBL document CHEMBL1149739, “Sarcochromenol sulfates A-C and sarcohydroquinone sulfates A-C, new natural products from the sponge Sarcotragus spinulosus” (J Nat Prod, 1992)
